Test results reported in patent US9757355B2, “Oral dosage forms of cyclopropanecarboxylic acid {2-[(1S)-1-(3-ethoxy-4-methoxy-phenyl)-2-methanesulfonyl-ethyl]-3-oxo-2,3-dihydro-1H-isoindol-4-yl}-amide” (Celgene Corporation, priority 2011, dated 2017).
In brackets after ≈: the same amount, converted by molar mass.

Assays:
[1] = system: TNF-α; experiment: In vivo LPS-induced TNF-α production assay; settings: Rattus norvegicus, 1.5 h; p.o.; male CD rats, 0.05 mg/kg LPS, blood 90 minutes after LPS challenge; read-out: ED50, TNF-α levels in rat plasma
Method: Male CD rats procured from Charles River Laboratories at seven weeks of age are allowed to acclimate for one week prior to use. A lateral tail vein is cannulated percutaneously with a 22-gage over-the-needle catheter under brief isoflurane anesthesia. Rats are administered a PDE4 inhibitor of the invention either by intravenous injection via the tail vein catheter or oral gavage 15 to 180 min prior to injection of 0.05 mg/kg LPS (E. Coli 055:B5). Catheters are flushed with 2.5 mL/kg of normal injectable saline. Blood is collected via cardiac puncture 90 minutes after LPS challenge. Plasma is prepared using lithium heparin separation tubes and frozen at −80° C. until analyzed. TNF-α levels are determined using a rat specific TNF-α ELISA kit (Busywork). The ED50 values are calculated as the dose of the PDE4 inhibitor of the invention at which the TNF-α production is reduced to 50% of the control value.

[2] = molecular target: Phosphodiesterase 4 enzyme; experiment: Inhibition of PDE4; type: biochemical; settings: PDE4 purified from U937 human monocytic cells; 1 μM cAMP, 45 min at 30° C.
Method: Phosphodiesterase 4 enzyme was purified from U937 human monocytic cells by gel filtration chromatography, and phosphodiesterase reactions were carried out as previously described. See, e.g., Muller et al., Bioorg. Med. Chem. Lett., 1998, 8(19): 2669-2674. Briefly, reactions were carried out in 96-well deep-well plates in 50 mM Tris HCl pH 7.5, 5 mM MgCl2, 1 μM cyclic adenosine monophosphate (cAMP), plus 10 nM [^3H]-cAMP for 45 min at 30° C. The reactions were terminated by boiling, treated with 1 mg/ml snake venom, and separated using AG-1X8 ion exchange resin (BioRad). Reactions consumed less than 15% of available substrate.

[3] = Aqueous solubility; type: physicochemical; settings: water (aqueous)
Method: Thus, there exists a need for alternative formulations of Compound A in order to increase the bioavailability of the drug upon oral administration. Provided herein are oral dosage forms addressing this need.
The above method results in a physically stable solid dispersion of Compound A having an aqueous solubility of about 2 μg/mL.

CCOc1cc([C@@H](CS(C)(=O)=O)N2Cc3cccc(NC(=O)C4CC4)c3C2=O)ccc1OC [Compound A, Cyclopropanecarboxylic acid {2-[(1S)-1-(3-ethoxy-4-methoxy-phenyl)-2-methanesulfonyl-ethyl]-3-oxo-2,3-dihydro-1H-isoindol-4-yl}-amide]
ED50 [1]: ~7.8 µg/kg | IC50 [2]: 105 nM | solubility [3]: ~2 µg/mL (≈ 4.23 µM)
